Laboratory results published in patent publication US20250064789A1, “KETOAMIDE DERIVATIVES AND PHARMACEUTICAL USES THEREOF” (priority 2022, published 2025).

Experiments:
Format in all cases: cell-based
[1] = tested on: SARS-CoV-2 (B.1.1.529) BA.1 mutant strains; experiment: Antiviral activity at the cellular level by RT-qPCR in Vero E6-TMPRSS2 cells
[2] = tested on: SARS-CoV-2 Alpha (B.1.1.7) mutant strains; experiment: Antiviral activity by plaque method in Vero E6-TMPRSS2 cells: SARS-CoV-2 Alpha
[3] = tested on: SARS-CoV-2 Beta (B.1.351) mutant strains; experiment: Antiviral activity by plaque method in Vero E6-TMPRSS2 cells: SARS-CoV-2 Beta

| Compound | inhibitory activity on replication of SARS-CoV-2 (B.1.1.529) in Vero E6-TMPRSS2 cells (in words) [1] | anti-viral activity, times higher than Nirmatrelvir (PF-07321332) [2] [times] | anti-viral activity, times higher than Nirmatrelvir (PF-07321332) [3] [times] |
| --- | --- | --- | --- |
| COC[C@@H](NC(=O)C1CCC(F)(F)CC1)C(=O)N[C@H](Cc1ccccc1)C(=O)C(=O)NCc1nccs1 [Compound 395] | better inhibitory activity | – | – |
| COC[C@@H](NC(=O)C1CCCC(F)(F)C1)C(=O)N[C@H](Cc1ccccc1)C(=O)C(=O)NCc1nccs1 (stereo partly drawn) [Compound 398, N—((R)-1-(((R)-3,4-dioxo-1-phenyl-4-((thiazole-2-ylmethyl)amino)butan-2-yl)amino)-3-methoxy-1-oxopropan-2-yl)-3,3-difluorocyclohexane-1-formamide] | better inhibitory activity | 40.95 | 10.16 |
